Data: patent US20210270801A1, “TOPOGRAPHICALLY GUIDED CELL MIGRATION DEVICES AND METHODS” (priority 2018, published 2021)

System: MCF10A cells
Test: Impedimetric collective cell migration assay with proliferation inhibitor
Assay type: cell-based
Settings: 1 ng/ml
Description: In experiments designed to validate the proper functioning of devices, systems and methods for CMAPs of the present disclosure, MCF10A cells, a non-tumorigenic mammary epithelial cell line, were chosen as the cell model to validate whether a Nafion-nanotextured substrate is suitable for cell growth and migration. Cell monolayers were grown to cover a half of the area of each well to achieve a uniform condition at the beginning of the experiment. An elastomeric silicone (polydimethylsiloxane or PDMS) block was attached to the Nafion-patterned surface in each well, and then the MCF10A cells were seeded into the notch of the PDMS block at a seeding density of 20,000 cells per well. After 24 hours of incubation, the cells grew into a cell monolayer in the cell-seeding region and the PDMS block in each well was removed to initiate an impedimetric recording of collective cell migration. Cells migrated collectively as a cell sheet in a migration direction toward the other side of the well along the direction of nanogrooves and reached the end of the nanotextured migration area after 60-hour of migration.
Additional validation studies were carried out to determine whether collective cell migration behaviors are affected by the nanotextured cell-interface surface, which mimics the topography of in vivo cell migration microenvironment. MCF10A cells were grown on both nanotextured and untextured surfaces and the distances between the cell sheet border at 0 hour and 60 hours were measured.
Identifying effective drugs that target tumor metastasis is one of the ultimate goals of cancer migration assays. For this reason, a CMAP of the present disclosure was used to assess its capability to detect drug effects by using widely applied inhibitors. In this experiment, 1 ng/ml mitomycin C was used to inhibit MCF10A cell proliferation to determine whether collective cell migration is still faster on Nafion-nanotextured surfaces than on the untextured surfaces, after eliminating proliferation as a confounding factor.

## CO[C@@]12[C@H](COC(N)=O)C3=C(C(=O)C(C)=C(N)C3=O)N1C[C@@H]1N[C@@H]12 [mitomycin C]
Nafion-nanotextured (NP) surface, compared with UP untreated, P<0.05
  collective migration: continued to migrate with alacrity, even outpacing their UP untreated counterparts
Both nanotextured (NP) and untextured (UP) groups, impedance at 10 kHz
  collective migration after proliferation inhibition: substantially slowed but did not inhibit collective migration
Untextured (UP) surface
  collective migration / change in impedance over the duration: migrated minimally as expected with no significant change in impedance
